Tested on: Haemonchus contortus
Assay: Haemonchus contortus/sheep: nematode egg count in feces before and after oral treatment
Format: in vivo
Details: Haemonchus contortus, po, read-out: effective dose (Dosis effectiva)
Method: Haemonchus contortus/sheep
Sheep experimentally infected with Haemonchus contortus were treated after expiry of the prepatency time of the parasite.
The active compounds were administered orally in gelatin capsules as pure active ingredient.
The efficacy is determined by quantitatively counting the nematode eggs excreted with the feces before and after treatment.
Complete cessation of oviposition after treatment means that the nematodes have been expelled or are so damaged that they no longer produce eggs (Dosis effectiva).
Molecule `CC(C)C[C@H]1C(=O)O[C@H](Cc2ccccc2)C(=O)N(C)[C@@H](CC(C)C)C(=O)O[C@H](C)CN(C)[C@@H](CC(C)C)C(=O)O[C@H](Cc2ccccc2)C(=O)N(C)[C@@H](CC(C)C)C(=O)O[C@H](C)CN1C` [Example 1-b, 8,20-dibenzyl-5,11,17,23-tetraisobutyl-2,4,10,14,16,22-hexamethyl-1,7,13,19-tetraoxa-4,10,16,22-tetraaza-cyclotetracosan-6,9,12,18,21,24-hexaone] has a minimal effective dose of less than 1 mg/kg.
`CC(C)C[C@H]1C(=O)O[C@H](Cc2ccccc2)CN(C)[C@@H](CC(C)C)C(=O)O[C@H](C)CN(C)[C@@H](CC(C)C)C(=O)O[C@H](Cc2ccccc2)CN(C)[C@@H](CC(C)C)C(=O)O[C@H](C)CN1C` [Example 2, 8,20-dibenzyl-5,11,17,23-tetraisobutyl-2,4,10,14,16,22-hexamethyl-1,7,13,19-tetraoxa-4,10,16,22-tetraazacyclotetracosan-6,12,18,24-tetraone] gave a minimal effective dose of less than 1 mg/kg.
For `CC(C)C[C@H]1C(=O)O[C@H](Cc2ccc(N3CCOCC3)cc2)C(=O)N(C)[C@@H](CC(C)C)C(=O)O[C@H](C)CN(C)[C@@H](CC(C)C)C(=O)O[C@H](Cc2ccccc2N2CCOCC2)C(=O)N(C)[C@@H](CC(C)C)C(=O)O[C@H](C)CN1C` [Example 6, 5,11,17,23-tetraisobutyl-2,4,10,14,16,22-hexamethyl-8-[-4-(N-morpholinyl)benzyl]-20-[2-(N-morpholinyl)benzyl]-1,7,13,19-tetraoxa-4,10,16,22-tetraaza-cyclotetracosan-6,9,12,18,21,24-hexaone], the minimal effective dose was less than 1 mg/kg.
Molecule `CC(C)C[C@H]1C(=O)O[C@H](Cc2ccc(-n3cccc3)cc2)C(=O)N(C)[C@@H](CC(C)C)C(=O)O[C@H](C)CN(C)[C@@H](CC(C)C)C(=O)O[C@H](Cc2ccc(-n3cccc3)cc2)C(=O)N(C)[C@@H](CC(C)C)C(=O)O[C@H](C)CN1C` [Example 14, 8,20-bis-[4-(1-pyrrolyl)-benzyl]-5,11,17,23-tetraisobutyl-2,4,10,14,16,22-hexamethyl-1,7,13,19-tetraoxa-4,10,16,22-tetraaza-cyclotetracosan-6,9,12,18,21,24-hexaone] has a minimal effective dose of less than 1 mg/kg.
For `COCCN(CCOC)c1ccc(CC2OC(=O)C(CC(C)C)N(C)CC(C)OC(=O)C(CC(C)C)N(C)C(=O)C(Cc3ccc(N(CCOC)CCOC)cc3)OC(=O)C(CC(C)C)N(C)CC(C)OC(=O)C(CC(C)C)N(C)C2=O)cc1` (stereo not drawn) [Example 16-c, 8,20-bis-[4-bis-(β-methoxyethyl)aminobenzyl)-5,11,17,23-tetraisobutyl-2,4,10,14,16,22-hexamethyl-1,7,13,19-tetraoxa-4,10,16,22-tetraazacyclotetracosan-6,9,12,18,21,24-hexaone], the minimal effective dose was less than 1 mg/kg.
Work on `CC(C)C[C@H]1C(=O)O[C@H](Cc2ccc(NCc3ccco3)cc2)C(=O)N(C)[C@@H](CC(C)C)C(=O)O[C@H](C)CN(C)[C@@H](CC(C)C)C(=O)O[C@H](Cc2ccc(NCc3ccco3)cc2)C(=O)N(C)[C@@H](CC(C)C)C(=O)O[C@H](C)CN1C` [Example 19, 8,20-bis-N-[4-(2-furylmethylanino)benzyl]-5,11,17,23-tetraisobutyl-2,4,10,14,16,22-hexamethyl-1,7,13,19-tetraoxa-4,10,16,22-tetraaza-cyclotetracosan-6,9,12,18,21,24-hexaone] yielded a minimal effective dose of less than 1 mg/kg.
Work on `CC(=O)N1CCN(S(=O)(=O)c2ccc(CC3OC(=O)C(CC(C)C)N(C)CC(C)OC(=O)C(CC(C)C)N(C)C(=O)C(Cc4ccc(S(=O)(=O)O)cc4)OC(=O)C(CC(C)C)N(C)CC(C)OC(=O)C(CC(C)C)N(C)C3=O)cc2)CC1` (centres unmarked) [Example 21-b, 8-[4-(4-acetylpiperazin-1-yl)-sulfonyl-benzyl]-20-(4-sulfobenzyl)-5,11,17,23-tetraisobutyl-2,4,10,14,16,22-hexamethyl-1,7,13,19-tetraoxa-4,10,16,22-tetraaza-cyclotetracosan-6,9,12,18,21,24-hexaone] yielded a minimal effective dose of 1 mg/kg.

Same assay, conditions: sheep experimentally infected with Haemonchus contortus; oral, gelatin capsules, pure active ingredient; complete cessation of oviposition after treatment
With `COCCNc1ccc(CC2OC(=O)C(CC(C)C)N(C)C(=O)C(C)OC(=O)C(CC(C)C)N(C)C(=O)C(Cc3ccc(N(CCOC)CCOC)cc3)OC(=O)C(CC(C)C)N(C)CC(C)OC(=O)C(CC(C)C)N(C)C2=O)cc1` (stereo not drawn) [Example 17-a, 8(or 20)-[4-bis-(β-methoxyethyl)aminobenzyl]-20(or 8)-(4-β-methoxyethylaminobenzyl)-5,11,17,23-tetraisobutyl-2,4,10,14,16,22-hexamethyl-1,7,13,19-tetraoxa-4,10,16,22-tetraaza-cyclotetracosan-6,9,12,15,18,21,24-heptaone] the “effective dose (Dosis effectiva)” value was less than 1 mg/kg.

Same assay, conditions: sheep experimentally infected with Haemonchus contortus; oral, gelatin capsules, pure active ingredient; complete cessation of oviposition after treatment; read-out: effective dose (Dosis effectiva)
Molecule `CC(C)C[C@H]1C(=O)O[C@H](Cc2ccc(N3CCOCC3)cc2)C(=O)N(C)[C@@H](CC(C)C)C(=O)O[C@H](C)CN(C)[C@@H](CC(C)C)C(=O)O[C@H](Cc2ccc(N3CCOCC3)cc2)C(=O)N(C)[C@@H](CC(C)C)C(=O)O[C@H](C)CN1C` [Example 5, 5,11,17,23-tetraisobutyl-2,4,10,14,16,22-hexamethyl-8,20-bis-[4-(N-morpholinyl)benzyl]-1,7,13,19-tetraoxa-4,10,16,22-tetraaza-cyclotetracosan-6,9,12,18,21,24-hexaone] has a minimal effective dose of less than 1 mg/kg.
Work on `CC(C)CC1C(=O)OC(C)CN(C)C(CC(C)C)C(=O)OC(Cc2ccc(N3CCOCC3)cc2)C(=O)N(C)C(CC(C)C)C(=O)OC(C)CN(C)C(CC(C)C)C(=O)OC(Cc2ccc(N3CCOCC3)cc2)CN1C` (centres unmarked) [Example 7-c, 5,11,17,23-tetraisobutyl-2,4,10,14,16,22-hexamethyl-8,20-bis-[4-(N-morpholinyl)benzyl]-1,7,13,19-tetraoxa-4,10,16,22-tetraaza-cyclotetracosan-6,9,12,18,24-pentaone] yielded a minimal effective dose of less than 1 mg/kg.
With `CC(C)CC1C(=O)OC(C)CN(C)C(CC(C)C)C(=O)OC(Cc2ccc(N3CCOCC3)cc2)CN(C)C(CC(C)C)C(=O)OC(C)CN(C)C(CC(C)C)C(=O)OC(Cc2ccc(N3CCOCC3)cc2)CN1C` (centres unmarked) [Example 7-d, 5,11,17,23-tetraisobutyl-2,4,10,14,16,22-hexamethyl-8,20-bis-[4-(N-morpholinyl)benzyl]-1,7,13,19-tetraoxa-4,10,16,22-tetraaza-cyclotetracosan-6,12,18,24-tetraone] the minimal effective dose was less than 1 mg/kg.
With `COCCNc1ccc(CC2OC(=O)C(CC(C)C)N(C)CC(C)OC(=O)C(CC(C)C)N(C)C(=O)C(Cc3ccc(NCCOC)cc3)OC(=O)C(CC(C)C)N(C)CC(C)OC(=O)C(CC(C)C)N(C)C2=O)cc1` (stereo not drawn) [Example 16-a, 8,20-bis-(4-β-methoxyethylaminobenzyl)-5,11,17,23-tetraisobutyl-2,4,10,14,16,22-hexamethyl-1,7,13,19-tetraoxa-4,10,16,22-tetraaza-cyclotetracosan-6,9,12,18,21,24-hexaone] the minimal effective dose was less than 1 mg/kg.

Tested on: not given
Assay: not given
Details: not given
Molecule `CC(C)C[C@H]1C(=O)O[C@H](Cc2ccc(OCc3ccco3)cc2)C(=O)N(C)[C@@H](CC(C)C)C(=O)O[C@H](C)CN(C)[C@@H](CC(C)C)C(=O)O[C@H](Cc2ccc(OCc3ccco3)cc2)C(=O)N(C)[C@@H](CC(C)C)C(=O)O[C@H](C)CN1C` (stereo in doubt) has a melting point of 116 to 119 °C.
For `CC(C)C[C@H]1C(=O)O[C@H](Cc2ccccc2)C(=O)N(C)[C@@H](CC(C)C)C(=O)O[C@H](C)CN(C)[C@@H](CC(C)C)C(=O)O[C@H](Cc2ccccc2)C(=O)N(C)[C@@H](CC(C)C)C(=O)O[C@H](C)CN1C` [Example 1-b, 8,20-dibenzyl-5,11,17,23-tetraisobutyl-2,4,10,14,16,22-hexamethyl-1,7,13,19-tetraoxa-4,10,16,22-tetraaza-cyclotetracosan-6,9,12,18,21,24-hexaone], the melting point was 149 to 150 °C.
